Assay results: patent US20240279710A1, “FLUORESCENT PROBES” (TOHOKU TECHNO ARCH CO., LTD., priority 2021, published 2024)

Legend:
calpain = assay: Combined use with calpain inhibitor in rat NMDA model (Compound 19 as probe); format: in vivo
Experimental: (§1) Carboxymethylcellulose sodium was dissolved in distilled water to prepare a 0.5% (w/v) CMC solution. An inhibitor-containing CMC solution was prepared by suspending SNJ-1945 in the 0.5% (w/v) CMC solution so that its concentration became 2.5% (w/v). Rats were each subjected to general anesthesia with isoflurane, and NMDA (10 mM, 2 μL) was administered into an eye of the rat. 2 Hours after the administration of NMDA, the inhibitor-containing CMC solution was intraperitoneally administered to the rat so that the dose of SNJ-1945 became 100 mg/kg body weight. 4 Hours after the administration of the inhibitor (6 hours after the administration of NMDA), the rat was anesthetized with isoflurane again, and Compound 19 (15 μM, 4 μL) was administered into the eye. Images of an ocular fundus were taken with F-10 20 minutes to 30 minutes after the administration of Compound 19. In a control group (N=8), the same operations as those in an SNJ-1945-administered group (N=8) except the following were performed: the 0.5% (w/v) CMC solution was administered instead of the inhibitor-containing CMC solution.
as §1, with “orally” for “intraperitoneally”, “(N=7),” for “(N=8),”
Carboxymethylcellulose sodium was dissolved in distilled water to prepare a 0.5% (w/v) CMC solution. An inhibitor-containing CMC solution was prepared by suspending SNJ-1945 in the 0.5% (w/v) CMC solution so that its concentration became 2.5% (w/v). The inhibitor-containing CMC solution was intraperitoneally administered to each of rats so that the dose of SNJ-1945 became 100 mg/kg body weight. 2 Hours after the intraperitoneal administration, the rat was subjected to general anesthesia with isoflurane, and NMDA (10 mM, 2 μL) was administered into an eye thereof. […]

SH-SY5Y cells = assay: Combined use with calpain inhibitor in live cell imaging; format: cell-based; conditions: inhibitor 10 μM, 5 μM Compound 19, SH-SY5Y cells; FIG. 30
Experimental: Whether or not the improvement in enzymatic reactivity between the compound of the present invention and a calpain confirmed by the above-mentioned experiment remained the same even in a cell was verified. Calpain activity imaging in SH-SY5Y cells was performed on each of Compounds 16 and 19. Specifically, the SH-SY5Y cells (American Type Culture Collection, VA, USA) were cultured in a mixed medium of Dulbecco's modified eagle medium and Ham's F-12 medium (DMEM/F-12; Thermo Fisher Scientific, Inc.) (containing 10% fetal bovine serum (FBS; Thermo Fisher Scientific, Inc., MA, USA) and 100 U/mL penicillin-100 μg/mL streptomycin (PS; Thermo Fisher Scientific, Inc.)) under the conditions of 37° C. and 5% CO2-95% air. 6×10^4 to 8×10^4 Cells/well of the cells were seeded in a multiwell plate (μ-Plate 96 Well; ibidi, Grafelfing, Germany) coated with poly-D-lysine (Thermo Fisher Scientific, Inc.) and laminin (BD Biosciences, CA, USA), and were preincubated in a culture solution. Immediately after the removal of the culture solution in the wells, 200 μL of an assay solution (a culture solution containing a 5 μM probe) was added thereto, and the cells were incubated under the conditions of 37° C. and 5% CO2-95% air. 10 Minutes after that, a bright field image and a fluorescence image were taken with a confocal microscope (LSM 710, Carl Zeiss AG, Oberkochen, Germany). […]

COCCOCCOC(=O)N[C@@H](CC(C)C)C(=O)N[C@@H](Cc1ccccc1)C(=O)C(=O)NC1CC1 [SNJ-1945]
number of HMRG-positive nerve cells compared to control group (calpain; 100 mg/kg intraperitoneally 2 hours after NMDA, Compound 19 (15 μM, 4 μL) 4 hours later, FIG. 32): significantly reduced | number of HMRG-positive nerve cells compared to control group (calpain; 100 mg/kg intraperitoneally 2 hours before NMDA, Compound 19 (15 μM, 4 μL) 6 hours after NMDA, FIG. 34): significantly reduced | number of HMRG-positive nerve cells compared to control group (calpain; 100 mg/kg orally 2 hours after NMDA, Compound 19 (15 μM, 4 μL) 4 hours later, FIG. 33): significantly reduced | number of HMRG-positive nerve cells compared to group administered any other calpain inhibitor (C2I, MDL 28,170, PD-151746) (calpain; orally as in Example 16, FIG. 35): significantly reduced | intracellular fluorescence intensity (Compound 19 probe) with vs without inhibitor (SH-SY5Y cells): attenuates
